Results reported in ChEMBL document CHEMBL1140680 (Bioorg Med Chem Lett, 2007).
pIC50: −log10 of the molar value. In brackets after ≈: the same amount, converted by molar mass.

What was measured:
Streptococcus pneumoniae = assay: Antibacterial activity against Streptococcus pneumoniae SV1 SP3 by micro-broth method; assay type: functional
Enterococcus faecalis = assay: Antibacterial activity against Enterococcus faecalis MG2 EF1 by micro-broth method; assay type: functional
Staphylococcus aureus = assay: Antibacterial activity against Staphylococcus aureus UC76 SA1 by micro-broth method; assay type: functional
Streptococcus pyogenes = assay: Antibacterial activity against Streptococcus pyogenes C203 SP1-1 by micro-broth method; assay type: functional
Moraxella catarrhalis = assay: Antibacterial activity against Moraxella catarrhalis BC-3531 by micro-broth method; assay type: functional
Haemophilus influenzae = assay: Antibacterial activity against Heamophilus influenzae HI3542 by microbroth method; assay type: functional
Escherichia coli = assay: Inhibition of transcription and translation activity in Escherichia coli by luciferase reporter assay; assay type: functional, organism-based

Row | Structure (SMILES) | MIC (Streptococcus pneumoniae) [µg/mL] | MIC (Enterococcus faecalis) [µg/mL] | MIC (Staphylococcus aureus) [µg/mL] | MIC (Streptococcus pyogenes) [µg/mL] | MIC (Moraxella catarrhalis) [µg/mL] | MIC (Haemophilus influenzae) [µg/mL] | pIC50 (Escherichia coli)
1 | CC(=O)NC[C@H]1CN(c2ccc3c(c2)CCCCC3=O)C(=O)O1 | 0.5 (≈ 1.58 µM) | 2 (≈ 6.32 µM) | 1 (≈ 3.16 µM) | 0.5 (≈ 1.58 µM) | – | – | –
2 | CC(=O)NC[C@H]1CN(c2ccc3c(c2)CCCc2c(-c4nnc(-c5ccccc5)o4)n[nH]c2-3)C(=O)O1 | 0.25 (≈ 0.516 µM) | > 64 | > 64 | 0.25 (≈ 0.516 µM) | > 64 | 16 (≈ 33 µM) | –
3 | CC(=O)NC[C@H]1CN(c2ccc3c(c2)CCCc2cn[nH]c2-3)C(=O)O1 | 0.25 (≈ 0.734 µM) | 0.25 (≈ 0.734 µM) | 0.5 (≈ 1.47 µM) | 0.125 (≈ 0.367 µM) | 2 (≈ 5.88 µM) | 2 (≈ 5.88 µM) | –
4 | CC(=O)NC[C@H]1CN(c2cc(F)c3c(c2)CCCc2c(-c4ccco4)n[nH]c2-3)C(=O)O1 | 1 (≈ 2.36 µM) | 2 (≈ 4.71 µM) | 2 (≈ 4.71 µM) | 1 (≈ 2.36 µM) | 8 (≈ 18.8 µM) | 64 (≈ 151 µM) | 5.24
5 | CC(=O)NC[C@H]1CN(c2cc(F)c3c(c2)CCCc2c(-c4cc(C)n(C)n4)n[nH]c2-3)C(=O)O1 | 1 (≈ 2.21 µM) | 2 (≈ 4.42 µM) | 4 (≈ 8.84 µM) | 1 (≈ 2.21 µM) | 32 (≈ 70.7 µM) | > 64 | 5.38
6 | CCCC(=O)NC[C@H]1CN(c2ccc3c(c2)CCCc2c(CCC)n[nH]c2-3)C(=O)O1 | 1 (≈ 2.44 µM) | 2 (≈ 4.87 µM) | 2 (≈ 4.87 µM) | 1 (≈ 2.44 µM) | 8 (≈ 19.5 µM) | > 64 | 5.25
7 | O=C(NC[C@H]1CN(c2ccc3c(c2)CCCc2c(-c4cc5ccccc5o4)n[nH]c2-3)C(=O)O1)c1cc2ccccc2o1 | 8 (≈ 14.3 µM) | 32 (≈ 57.3 µM) | 32 (≈ 57.3 µM) | 4 (≈ 7.16 µM) | > 64 | > 64 | < 4.60
8 | Cc1cc(C(=O)NC[C@H]2CN(c3cc(F)c4c(c3)CCCc3c(-c5cc(C)on5)n[nH]c3-4)C(=O)O2)no1 | > 64 | > 64 | > 64 | > 64 | > 64 | > 64 | 4.94
9 | Cc1cc(C(=O)NC[C@H]2CN(c3cc(F)c4c(c3)CCCc3c(-c5cc(C)n(C)n5)n[nH]c3-4)C(=O)O2)nn1C | > 64 | > 64 | > 64 | > 64 | > 64 | > 64 | < 4.60
10 | CC(=O)NC[C@H]1CN(c2ccc3c(c2)CCCc2c(-c4cc(C)n(C)n4)n[nH]c2-3)C(=O)O1 | 0.25 (≈ 0.575 µM) | 0.5 (≈ 1.15 µM) | 0.5 (≈ 1.15 µM) | 0.25 (≈ 0.575 µM) | 4 (≈ 9.21 µM) | 8 (≈ 18.4 µM) | 5.89
11 | CC(=O)NC[C@H]1CN(c2ccc3c(c2)CCCc2c(-c4csc(-c5ccccc5)n4)n[nH]c2-3)C(=O)O1 | 0.5 (≈ 1 µM) | 8 (≈ 16 µM) | 8 (≈ 16 µM) | 1 (≈ 2 µM) | > 64 | > 64 | < 4.94
12 | CC(=O)NC[C@H]1CN(c2ccc3c(c2)CCCc2c(-c4snnc4C)n[nH]c2-3)C(=O)O1 | 0.25 (≈ 0.57 µM) | 0.5 (≈ 1.14 µM) | 0.5 (≈ 1.14 µM) | 0.125 (≈ 0.285 µM) | 2 (≈ 4.56 µM) | 8 (≈ 18.2 µM) | 6.15
13 | CC(=O)NC[C@H]1CN(c2cc(F)c3c(c2)CCCc2c(-c4cc(C)on4)n[nH]c2-3)C(=O)O1 | 0.5 (≈ 1.14 µM) | 0.5 (≈ 1.14 µM) | 1 (≈ 2.28 µM) | 0.5 (≈ 1.14 µM) | 4 (≈ 9.1 µM) | > 64 | 5.68
14 | CC(=O)NC[C@H]1CN(c2cc(F)c3c(c2)CCCc2cn[nH]c2-3)C(=O)O1 | 1 (≈ 2.79 µM) | 2 (≈ 5.58 µM) | 2 (≈ 5.58 µM) | 1 (≈ 2.79 µM) | 8 (≈ 22.3 µM) | 8 (≈ 22.3 µM) | 5.68
15 | CC(C)C(=O)NC[C@H]1CN(c2ccc3c(c2)CCCc2c(C(C)C)n[nH]c2-3)C(=O)O1 | 4 (≈ 9.74 µM) | 8 (≈ 19.5 µM) | 8 (≈ 19.5 µM) | 4 (≈ 9.74 µM) | 32 (≈ 78 µM) | 64 (≈ 156 µM) | 5.10
16 | CC(=O)NC[C@H]1CN(c2ccc(N3CCOCC3)c(F)c2)C(=O)O1 [LINEZOLID] | – | – | – | 2 (≈ 5.93 µM) | – | – | –

More lines, now with the values ahead:

Row | MIC (Streptococcus pneumoniae) [µg/mL] | MIC (Enterococcus faecalis) [µg/mL] | MIC (Staphylococcus aureus) [µg/mL] | MIC (Streptococcus pyogenes) [µg/mL] | MIC (Moraxella catarrhalis) [µg/mL] | MIC (Haemophilus influenzae) [µg/mL] | pIC50 (Escherichia coli) | Structure (SMILES)
17 | 0.5 (≈ 1.09 µM) | 1 (≈ 2.17 µM) | 1 (≈ 2.17 µM) | 0.5 (≈ 1.09 µM) | 4 (≈ 8.69 µM) | 32 (≈ 69.5 µM) | 4.77 | O=C(NC[C@H]1CN(c2ccc3c(c2)CCCc2c(-c4ccno4)n[nH]c2-3)C(=O)O1)c1ccno1
18 | 0.5 (≈ 1.1 µM) | 0.5 (≈ 1.1 µM) | 2 (≈ 4.38 µM) | 0.5 (≈ 1.1 µM) | 8 (≈ 17.5 µM) | > 64 | < 4.51 | CC(=O)NC[C@H]1CN(c2ccc3c(c2)CCCc2c(-c4cc5ccccc5o4)n[nH]c2-3)C(=O)O1
19 | > 64 | > 64 | > 64 | > 64 | > 64 | > 64 | – | CC(=O)NC[C@H]1CN(c2ccc3c(c2)CCCc2c(-c4nc5ccccc5s4)n[nH]c2-3)C(=O)O1
20 | 1 (≈ 2.18 µM) | 1 (≈ 2.18 µM) | 2 (≈ 4.36 µM) | 1 (≈ 2.18 µM) | 4 (≈ 8.72 µM) | 8 (≈ 17.4 µM) | 5.46 | O=C(NC[C@H]1CN(c2ccc3c(c2)CCCc2c(-c4ccoc4)n[nH]c2-3)C(=O)O1)c1ccoc1
21 | 1 (≈ 2.05 µM) | > 64 | > 64 | 2 (≈ 4.09 µM) | > 64 | > 64 | – | Cc1cc(C(=O)NC[C@H]2CN(c3ccc4c(c3)CCCc3c(-c5cc(C)on5)n[nH]c3-4)C(=O)O2)no1
22 | 4 (≈ 10.9 µM) | 8 (≈ 21.9 µM) | 16 (≈ 43.8 µM) | 2 (≈ 5.47 µM) | 64 (≈ 175 µM) | > 64 | 5.08 | NC[C@H]1CN(c2ccc3c(c2)CCCc2c(-c4ccno4)n[nH]c2-3)C(=O)O1
23 | 0.5 (≈ 1.14 µM) | 0.5 (≈ 1.14 µM) | 1 (≈ 2.29 µM) | 0.5 (≈ 1.14 µM) | 4 (≈ 9.14 µM) | > 64 | 5.74 | CCOC(=O)NC[C@H]1CN(c2ccc3c(c2)CCCc2c(-c4ccno4)n[nH]c2-3)C(=O)O1
24 | 0.25 (≈ 0.577 µM) | 0.5 (≈ 1.15 µM) | 1 (≈ 2.31 µM) | 0.25 (≈ 0.577 µM) | 1 (≈ 2.31 µM) | 32 (≈ 73.8 µM) | 5.89 | O=C(NC[C@H]1CN(c2ccc3c(c2)CCCc2c(-c4ccno4)n[nH]c2-3)C(=O)O1)C1CC1
25 | 0.5 (≈ 1.18 µM) | 0.5 (≈ 1.18 µM) | 1 (≈ 2.35 µM) | 0.25 (≈ 0.588 µM) | 4 (≈ 9.4 µM) | > 64 | 5.85 | CC(=O)NC[C@H]1CN(c2cc(F)c3c(c2)CCCc2c(-c4ccno4)n[nH]c2-3)C(=O)O1
26 | 1 (≈ 2.13 µM) | 1 (≈ 2.13 µM) | 2 (≈ 4.25 µM) | 1 (≈ 2.13 µM) | 32 (≈ 68 µM) | > 64 | 5.55 | O=C(NC[C@H]1CN(c2ccc3c(c2)CCCc2c(-c4ccno4)n[nH]c2-3)C(=O)O1)c1cccnc1
27 | 0.25 (≈ 0.564 µM) | 0.5 (≈ 1.13 µM) | 0.5 (≈ 1.13 µM) | 0.125 (≈ 0.282 µM) | 1 (≈ 2.26 µM) | 4 (≈ 9.02 µM) | 6.68 | O=C(NC[C@H]1CN(c2ccc3c(c2)CCCc2c(-c4ccno4)n[nH]c2-3)C(=O)O1)C(F)F
28 | 1 (≈ 2.08 µM) | 4 (≈ 8.32 µM) | 8 (≈ 16.6 µM) | 2 (≈ 4.16 µM) | 16 (≈ 33.3 µM) | > 64 | 5.43 | O=C(NC[C@H]1CN(c2ccc3c(c2)CCCc2c(-c4cccnc4)n[nH]c2-3)C(=O)O1)c1cccnc1
